Measurements: paper PMC3914206

Key:
panel of 442 kinases [1] = target: T1, panel of 442 kinases (Homo sapiens, UniProt P29322); assay type: binding; conditions: Compound Concentration 10 µM
T1 construct: purchased KINOMEscan
T1 sequence (P29322 28-1005): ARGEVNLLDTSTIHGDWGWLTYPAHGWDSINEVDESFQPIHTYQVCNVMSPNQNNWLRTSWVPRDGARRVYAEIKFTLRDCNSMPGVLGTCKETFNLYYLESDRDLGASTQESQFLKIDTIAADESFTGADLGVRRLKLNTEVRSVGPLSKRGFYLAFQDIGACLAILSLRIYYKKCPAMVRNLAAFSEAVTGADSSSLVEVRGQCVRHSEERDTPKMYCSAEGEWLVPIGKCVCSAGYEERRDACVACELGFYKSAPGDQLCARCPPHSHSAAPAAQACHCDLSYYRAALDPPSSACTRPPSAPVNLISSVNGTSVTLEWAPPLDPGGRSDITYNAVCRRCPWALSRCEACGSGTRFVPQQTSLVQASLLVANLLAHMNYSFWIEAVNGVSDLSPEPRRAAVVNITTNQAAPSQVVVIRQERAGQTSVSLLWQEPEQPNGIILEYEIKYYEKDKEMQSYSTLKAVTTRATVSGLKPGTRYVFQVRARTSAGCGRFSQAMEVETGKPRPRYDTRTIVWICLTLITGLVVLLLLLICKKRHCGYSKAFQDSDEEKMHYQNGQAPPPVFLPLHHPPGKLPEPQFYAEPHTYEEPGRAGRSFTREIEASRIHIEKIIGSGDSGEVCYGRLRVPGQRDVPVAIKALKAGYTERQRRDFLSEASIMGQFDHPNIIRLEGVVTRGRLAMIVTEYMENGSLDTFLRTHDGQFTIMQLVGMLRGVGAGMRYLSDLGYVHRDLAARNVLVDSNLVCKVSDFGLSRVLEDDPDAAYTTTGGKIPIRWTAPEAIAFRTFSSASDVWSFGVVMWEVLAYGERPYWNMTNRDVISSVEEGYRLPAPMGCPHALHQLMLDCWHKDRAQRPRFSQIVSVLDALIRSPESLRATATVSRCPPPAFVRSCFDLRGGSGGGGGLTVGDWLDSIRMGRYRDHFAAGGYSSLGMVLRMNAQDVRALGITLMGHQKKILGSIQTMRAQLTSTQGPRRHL
Excerpt: (§1) We assessed the selectivity of members of this scaffold using the KINOMEscan methodology across a near comprehensive panel of 442 kinases [[18,27]].

panel of 442 kinases [2] = target: T2, panel of 442 kinases (Homo sapiens, UniProt Q9UK32); assay type: binding; conditions: compound concentration 10 µM; for % Ctrl, RSK4(Kin.Dom.1-N-terminal): kinase RSK4(Kin.Dom.1-N-terminal); for % Ctrl, RSK4(Kin.Dom.2-C-terminal): kinase RSK4(Kin.Dom.2-C-terminal)
T2 construct: purchased KINOMEscan
T2 sequence (Q9UK32 whole entry): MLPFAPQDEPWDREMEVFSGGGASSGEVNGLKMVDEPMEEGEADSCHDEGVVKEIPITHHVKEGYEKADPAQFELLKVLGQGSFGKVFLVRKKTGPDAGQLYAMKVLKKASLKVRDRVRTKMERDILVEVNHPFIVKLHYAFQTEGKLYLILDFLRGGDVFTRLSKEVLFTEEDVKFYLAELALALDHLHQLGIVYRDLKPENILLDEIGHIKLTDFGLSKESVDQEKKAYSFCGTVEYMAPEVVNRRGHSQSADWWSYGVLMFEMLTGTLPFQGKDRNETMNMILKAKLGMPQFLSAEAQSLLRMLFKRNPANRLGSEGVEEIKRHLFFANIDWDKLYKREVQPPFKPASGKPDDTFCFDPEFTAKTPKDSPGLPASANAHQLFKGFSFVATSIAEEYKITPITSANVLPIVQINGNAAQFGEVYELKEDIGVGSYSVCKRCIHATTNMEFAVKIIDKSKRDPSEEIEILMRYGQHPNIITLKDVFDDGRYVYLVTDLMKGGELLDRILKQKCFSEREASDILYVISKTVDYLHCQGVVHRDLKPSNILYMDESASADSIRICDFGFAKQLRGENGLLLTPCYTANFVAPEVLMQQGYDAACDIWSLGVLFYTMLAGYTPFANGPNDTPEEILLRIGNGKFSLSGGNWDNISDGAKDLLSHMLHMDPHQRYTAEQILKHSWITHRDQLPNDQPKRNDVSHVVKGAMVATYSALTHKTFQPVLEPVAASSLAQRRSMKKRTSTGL
Excerpt: as §1

Row | SMILES | KINOMEscan: EPHA8 (panel of 442 kinases [1]) | % Ctrl, RSK4(Kin.Dom.1-N-terminal) (panel of 442 kinases [2]) [% Ctrl] | % Ctrl, RSK4(Kin.Dom.2-C-terminal) (panel of 442 kinases [2]) [% Ctrl]
1 | COc1cc(C(=O)N2CCC(N3CCN(C)CC3)CC2)ccc1Nc1ncc2c(n1)N(C)c1ccccc1C(=O)N2C [15 (LRRK2-IN-1)] | 80 | 92 | 2.2
2 | COc1cc(C(=O)N2CCC(N3CCN(C)CC3)CC2)ccc1Nc1ncc2c(n1)N1CCc3cccc(c31)C(=O)N2C [Compound 24] | 72 | 100 | 5.2
3 | COc1cc(C(=O)N2CCC(N3CCN(C)CC3)CC2)ccc1Nc1ncc2c(n1)N(C1CCCC1)c1ccccc1C(=O)N2C [Compound 25, 11-cyclopentyl-2-((2-methoxy-4-(4-(4-methylpiperazin-1-yl)piperidine-1-carbonyl)phenyl)amino)-5-methyl-5H-benzo[e]pyrimido[5,4-b][1,4]diazepin-6(11H)-one] | 97 | 100 | 93
4 | CCOc1cc(C(=O)N2CCC(N3CCN(C)CC3)CC2)ccc1Nc1ncc2c(n1)N(C1CCCC1)c1ccccc1C(=O)N2C [Compound 26] | 100 | 100 | 98
